Laboratory results taken from PMC5485575, “Arginine kinase from Haemonchus contortus decreased the proliferation and increased the apoptosis of goat PBMCs in vitro” (Parasites & Vectors, 2017).

Molecular target: T1, rHc-AK (Haemonchus contortus, UniProt K0DG62)
T1 construct: E. coli BL21(DE3), Ni-NTA
Experiment: fluorimetric ADP formation assay (Universal Fluorimetric Kinase Assay kit)
Assay type: biochemical
Conditions: room temperature, 30 min; 0-10 ug enzyme; substrates of the kinase reaction solution not named

T1 sequence (K0DG62 entry or part of it): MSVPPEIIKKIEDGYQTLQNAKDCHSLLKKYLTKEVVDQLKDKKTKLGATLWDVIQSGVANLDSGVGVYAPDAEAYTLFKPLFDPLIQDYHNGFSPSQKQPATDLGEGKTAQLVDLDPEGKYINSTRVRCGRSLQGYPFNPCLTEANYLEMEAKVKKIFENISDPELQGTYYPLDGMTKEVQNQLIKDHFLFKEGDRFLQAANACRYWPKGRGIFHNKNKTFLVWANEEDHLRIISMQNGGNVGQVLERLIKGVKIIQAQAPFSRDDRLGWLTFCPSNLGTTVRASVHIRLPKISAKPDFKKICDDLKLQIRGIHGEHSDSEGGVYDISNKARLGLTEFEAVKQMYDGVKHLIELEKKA

## Nc1ncnc2c1ncn2[C@@H]1O[C@H](COP(=O)(O)OP(=O)(O)O)[C@@H](O)[C@H]1O [ADP]
  fluorimetric ADP formation assay (Universal Fluorimetric Kinase Assay kit): results showed a remarkable augmentation in ADP generation with increased period
